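Test compounds were applied to cells in 96-well plates for 48 hours at 5 doses. GI50 = concentration required for 50% inhibition of growth.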 Active and inactive are the calls of the source. Rule as the data show it: active = GI50 up to about 1.1 µM and inactive = higher.
Experiments:
Assay in all cases: inhibition of tumour cell growth, NCI panel, 48 h
CCRF-CEM = tested on: CCRF-CEM
HCT-15 = tested on: HCT-15
HOP-62 = tested on: HOP-62
HOP-92 = tested on: HOP-92
HT-29 = tested on: HT-29
K562 = tested on: K562
M14 = tested on: M14
MOLT-4 = tested on: MOLT-4
NCI-H460 = tested on: NCI-H460
NCI/ADR-RES = tested on: NCI/ADR-RES
OVCAR-3 = tested on: OVCAR-3
OVCAR-4 = tested on: OVCAR-4
PC-3 = tested on: PC-3
SF-268 = tested on: SF-268
SK-MEL-28 = tested on: SK-MEL-28
SK-MEL-5 = tested on: SK-MEL-5
SK-OV-3 = tested on: SK-OV-3
SNB-75 = tested on: SNB-75
SR = tested on: SR
UACC-62 = tested on: UACC-62

Nc1nc(N)c(N=Nc2ccc([As](=O)(O)O)c(O)c2)c(N)n1
GI50 (CCRF-CEM): 1.9 µM (inactive)
GI50 (HCT-15): 37.6 µM
GI50 (HOP-62): 8.59 µM (inactive)
GI50 (HOP-92): 35.3 µM (inactive)
GI50 (HT-29): 3.75 µM (inactive)
GI50 (K562): 11.1 µM (inactive)
GI50 (M14): 35.6 µM (inactive)
GI50 (MOLT-4): 3.63 µM (inactive)
GI50 (NCI-H460): 6.12 µM (inactive)
GI50 (NCI/ADR-RES): > 100 µM (inactive)
GI50 (OVCAR-3): 3.61 µM (inactive)
GI50 (OVCAR-4): 32.1 µM (inactive)
GI50 (PC-3): 22.7 µM (inactive)
GI50 (SF-268): 55.8 µM (inactive)
GI50 (SK-MEL-28): > 100 µM (inactive)
GI50 (SK-MEL-5): 20.3 µM (inactive)
GI50 (SK-OV-3): 36.4 µM (inactive)
GI50 (SNB-75): 11.5 µM (inactive)
GI50 (SR): 0.834 µM (active)
GI50 (UACC-62): 31.5 µM (inactive)

CC(=O)SC(C[N+](=O)[O-])c1ccc2c(c1)OCO2 (stereo not given)
GI50 (CCRF-CEM): 4.8 µM (inactive)
GI50 (HCT-15): 3.32 µM
GI50 (HOP-62): 17.4 µM (inactive)
GI50 (HOP-92): 12 µM (inactive)
GI50 (HT-29): 2.49 µM (inactive)
GI50 (K562): 3.38 µM (inactive)
GI50 (M14): 5.9 µM (inactive)
GI50 (MOLT-4): 2.98 µM (inactive)
GI50 (NCI-H460): 11.2 µM (inactive)
GI50 (NCI/ADR-RES): 11.6 µM (inactive)
GI50 (OVCAR-3): 8.24 µM (inactive)
GI50 (OVCAR-4): 13.6 µM (inactive)
GI50 (PC-3): 12.7 µM (inactive)
GI50 (SF-268): 15.9 µM (inactive)
GI50 (SK-MEL-28): 3.15 µM (inactive)
GI50 (SK-MEL-5): 6.95 µM (inactive)
GI50 (SK-OV-3): 7.24 µM (inactive)
GI50 (SNB-75): 9.59 µM (inactive)
GI50 (SR): 2.5 µM (inactive)
GI50 (UACC-62): 5.62 µM (inactive)

COC(=O)CCC(=O)NC1c2cccc3cccc(c23)Cn2c(=O)n(C)c(=O)n21 (stereo not given)
GI50 (CCRF-CEM): > 100 µM (inactive)
GI50 (HCT-15): > 100 µM
GI50 (HOP-62): > 100 µM (inactive)
GI50 (HOP-92): > 100 µM (inactive)
GI50 (HT-29): > 100 µM (inactive)
GI50 (K562): > 100 µM (inactive)
GI50 (M14): > 100 µM (inactive)
GI50 (MOLT-4): > 100 µM (inactive)
GI50 (NCI-H460): > 100 µM (inactive)
GI50 (NCI/ADR-RES): > 100 µM (inactive)
GI50 (OVCAR-3): > 100 µM (inactive)
GI50 (OVCAR-4): > 100 µM (inactive)
GI50 (PC-3): > 100 µM (inactive)
GI50 (SF-268): > 100 µM (inactive)
GI50 (SK-MEL-28): > 100 µM (inactive)
GI50 (SK-MEL-5): > 100 µM (inactive)
GI50 (SK-OV-3): > 100 µM (inactive)
GI50 (SNB-75): > 100 µM (inactive)
GI50 (SR): > 100 µM (inactive)
GI50 (UACC-62): > 100 µM (inactive)

O=S(=O)(c1ccccc1)c1cccc2c1NCCC2
GI50 (CCRF-CEM): 46.8 µM (inactive)
GI50 (HCT-15): 32.4 µM
GI50 (HOP-62): > 100 µM (inactive)
GI50 (HOP-92): 28.8 µM (inactive)
GI50 (HT-29): 37.8 µM (inactive)
GI50 (K562): 35.6 µM (inactive)
GI50 (M14): 75.5 µM (inactive)
GI50 (MOLT-4): 28.7 µM (inactive)
GI50 (NCI-H460): 43.4 µM (inactive)
GI50 (NCI/ADR-RES): 38.5 µM (inactive)
GI50 (OVCAR-3): 50.7 µM (inactive)
GI50 (OVCAR-4): > 100 µM (inactive)
GI50 (PC-3): 31.1 µM (inactive)
GI50 (SF-268): 72.1 µM (inactive)
GI50 (SK-MEL-28): 36.7 µM (inactive)
GI50 (SK-MEL-5): 23.2 µM (inactive)
GI50 (SK-OV-3): > 10 µM (inactive)
GI50 (SNB-75): 26.1 µM (inactive)
GI50 (SR): 38.3 µM (inactive)
GI50 (UACC-62): > 10 µM (inactive)

FC(F)(F)c1cnc(N/N=C(/c2ccccc2)c2ccccn2)c(Cl)c1
GI50 (CCRF-CEM): 2.4 µM (inactive)
GI50 (HCT-15): 1.98 µM
GI50 (HOP-62): 7.4 µM (inactive)
GI50 (HOP-92): 8.75 µM (inactive)
GI50 (HT-29): 0.31 µM (active)
GI50 (K562): 4.03 µM (inactive)
GI50 (M14): 3.78 µM (inactive)
GI50 (MOLT-4): 2.67 µM (inactive)
GI50 (NCI-H460): 3.27 µM (inactive)
GI50 (NCI/ADR-RES): 2.78 µM (inactive)
GI50 (OVCAR-3): 3.37 µM (inactive)
GI50 (OVCAR-4): 7.76 µM (inactive)
GI50 (PC-3): 5.3 µM (inactive)
GI50 (SF-268): 4.85 µM (inactive)
GI50 (SK-MEL-28): 11.4 µM (inactive)
GI50 (SK-MEL-5): 4.29 µM (inactive)
GI50 (SK-OV-3): 4.76 µM (inactive)
GI50 (SNB-75): 6.25 µM (inactive)
GI50 (SR): 2.76 µM (inactive)
GI50 (UACC-62): 8.75 µM (inactive)

C=CC/C(C(=O)OC)=C(/C(=O)OC)N(CCC)CCC
GI50 (CCRF-CEM): 36.1 µM (inactive)
GI50 (HCT-15): > 100 µM
GI50 (HOP-62): > 100 µM (inactive)
GI50 (HOP-92): 64 µM (inactive)
GI50 (HT-29): > 100 µM (inactive)
GI50 (K562): 35.8 µM (inactive)
GI50 (M14): > 100 µM (inactive)
GI50 (MOLT-4): 61.8 µM (inactive)
GI50 (NCI-H460): > 100 µM (inactive)
GI50 (NCI/ADR-RES): > 100 µM (inactive)
GI50 (OVCAR-3): 36.1 µM (inactive)
GI50 (OVCAR-4): > 100 µM (inactive)
GI50 (PC-3): > 100 µM (inactive)
GI50 (SF-268): > 100 µM (inactive)
GI50 (SK-MEL-28): > 100 µM (inactive)
GI50 (SK-MEL-5): > 100 µM (inactive)
GI50 (SK-OV-3): > 100 µM (inactive)
GI50 (SNB-75): > 100 µM (inactive)
GI50 (SR): 16.4 µM (inactive)
GI50 (UACC-62): > 100 µM (inactive)

O=c1c2ccccc2nc2sc(/N=C/C=C/c3ccccc3)nn12
GI50 (CCRF-CEM): 55.5 µM (inactive)
GI50 (HCT-15): > 100 µM
GI50 (HOP-62): > 100 µM (inactive)
GI50 (HOP-92): > 100 µM (inactive)
GI50 (HT-29): > 100 µM (inactive)
GI50 (K562): > 100 µM (inactive)
GI50 (M14): > 100 µM (inactive)
GI50 (MOLT-4): 44.9 µM (inactive)
GI50 (NCI-H460): > 100 µM (inactive)
GI50 (NCI/ADR-RES): > 100 µM (inactive)
GI50 (OVCAR-3): > 100 µM (inactive)
GI50 (OVCAR-4): > 100 µM (inactive)
GI50 (PC-3): > 100 µM (inactive)
GI50 (SF-268): > 100 µM (inactive)
GI50 (SK-MEL-28): > 100 µM (inactive)
GI50 (SK-MEL-5): > 100 µM (inactive)
GI50 (SK-OV-3): > 100 µM (inactive)
GI50 (SNB-75): > 100 µM (inactive)
GI50 (SR): > 100 µM (inactive)
GI50 (UACC-62): > 100 µM (inactive)

COc1cc2c(cc1OC)C1c3ccccc3CCCN1CC2 (stereo not given)
GI50 (CCRF-CEM): > 100 µM (inactive)
GI50 (HCT-15): > 100 µM
GI50 (HOP-62): > 100 µM (inactive)
GI50 (HOP-92): 33 µM (inactive)
GI50 (HT-29): 51.2 µM (inactive)
GI50 (K562): > 100 µM (inactive)
GI50 (M14): > 100 µM (inactive)
GI50 (MOLT-4): > 100 µM (inactive)
GI50 (NCI-H460): > 10 µM (inactive)
GI50 (NCI/ADR-RES): > 100 µM (inactive)
GI50 (OVCAR-3): > 100 µM (inactive)
GI50 (OVCAR-4): > 100 µM (inactive)
GI50 (PC-3): > 100 µM (inactive)
GI50 (SF-268): > 100 µM (inactive)
GI50 (SK-MEL-28): > 100 µM (inactive)
GI50 (SK-MEL-5): > 100 µM (inactive)
GI50 (SK-OV-3): > 100 µM (inactive)
GI50 (SNB-75): > 100 µM (inactive)
GI50 (SR): > 100 µM (inactive)
GI50 (UACC-62): > 100 µM (inactive)

c1ccc2c(c1)CCN1CCc3c([nH]c4ccccc34)C21 (stereo not given)
GI50 (CCRF-CEM): 31.5 µM (inactive)
GI50 (HCT-15): 36.9 µM
GI50 (HOP-62): 36 µM (inactive)
GI50 (HOP-92): 22.2 µM (inactive)
GI50 (HT-29): 26.9 µM (inactive)
GI50 (K562): 20.5 µM (inactive)
GI50 (M14): 16.7 µM (inactive)
GI50 (MOLT-4): 24.5 µM (inactive)
GI50 (NCI-H460): 38.7 µM (inactive)
GI50 (NCI/ADR-RES): 22.1 µM (inactive)
GI50 (OVCAR-3): 24 µM (inactive)
GI50 (OVCAR-4): 35.2 µM (inactive)
GI50 (PC-3): 26.6 µM (inactive)
GI50 (SF-268): 30.8 µM (inactive)
GI50 (SK-MEL-28): 19.1 µM (inactive)
GI50 (SK-MEL-5): 15.1 µM (inactive)
GI50 (SK-OV-3): 47 µM (inactive)
GI50 (SNB-75): 24.9 µM (inactive)
GI50 (SR): 24.4 µM (inactive)
GI50 (UACC-62): 31.6 µM (inactive)

From ChEMBL document CHEMBL1201862, “PubChem BioAssay data set” (2004)
